Source: patent US20060211748A1, “Sulphydryl compounds in combination with sulpha compounds” (priority 2002, published 2006)

Key:
[1] = tested on: ^51Cr-labelled erythrocytes; assay: Half-life of 51Cr-labelled erythrocytes challenged in vitro with DDS N-hydroxylamine and re-introduced to autologous rats; assay type: in vivo; settings: red cells incubated two hours with DDS N-hydroxylamine 0.05 to 0.5 millimolar with N-acetyl-L-cysteine 2 to 10 millimolar, reintroduced into autologous rat
Experimental: Blood is drawn from laboratory rats into heparinized tubes, washed using conventional methods, and resuspended in buffered saline solution. Red blood cells are labeled with ^51Cr as chromate using the CPD standard method known to those skilled in the art. After resuspension in isotonic saline, DDS N-hydroxylamine alone (control) or with N-acetyl-L-cysteine (treatment) are added at final concentrations of 0.05 to 0.5 millimolar and 2 millimolar to 10 millimolar, respectively, and incubated for two hours. A 0.5 milliliter sample of the washed and resuspended red blood cells is then reintroduced into the autologous animal. Half-life of the labeled erythrocytes is determined by blood sampling every two days and counting of radioactive decay in the sample using a gamma counter.

[2] = treatment of opportunistic infections associated with AIDS; cited from earlier work

Compound	Half-life of ^51Cr-labelled erythrocytes [1]	Discontinuation of clinical use due to toxicity [2]
CC(=O)N[C@@H](CS)C(=O)O [N-acetyl-L-cysteine]	able to preserve the normal half-life	–
Nc1ccc(S(=O)(=O)c2ccc(N)cc2)cc1 [DDS, 4,4′-diaminodiphenylsulphone]	–	about 25 % of patients
